US20110136728A1, “METHODS OF INCREASING BONE FORMATION USING LEPTIN-RELATED PEPTIDES” (priority 2009, published 2011)
Values joined by “and” are separate entries in the source; they are usually repeats but may differ in a detail not shown here. Identical values can stand only once. “Also recorded” adds a separate entry of the source. Non-standard residues stand in square brackets, D forms with d. Residues, ends and D or L forms follow the SMILES beside them.

Tests used:
ob/ob mouse model = settings: Grasso et al., Regu. Pept. 101:123-129 (2001); cited from earlier work
[1] = test system: male C57BLK/6-m db/db mice; assay: Intranasal delivery in db/db mice: body weight, food and water intake, serum glucose, insulin, osteocalcin; assay type: in vivo, mouse
Protocol: Each bar and vertical line represents mean±SEM serum glucose level (n=6).
FIG. 17. Effects of intranasal administration of mouse [D-Leu-4]-OB3 (1 mg/day, 14 days) on body weight gain in C57BLk/6-m db/db mice. […] Each point represents the mean±standard error of mean change in body weight for a group of six mice.
In the present study, the effects of intranasal administration of mouse [D-Leu-4]-OB3 in Intravail® on energy balance, serum osteocalcin, and serum insulin levels in genetically obese male C57BLK/6-m db/db mice allowed food and water ad libitum were examined. […] (See FIGS. 12 and 13). […] (See FIGS. 14 and 15).
In the present study, the effects of intranasal delivery of mouse [D-Leu-4]-OB3 in Intravail® on energy balance, glucose regulation, insulin secretion, and serum levels of osteocalcin, a specific and sensitive marker of bone formation were examined Genetically obese C57BLK/6-m db/db mice were allowed food and water ad libitum, and given either Intravail® alone or mouse [D-Leu-4]-OB3 in Intravail® for 14 days. […] Serum insulin levels in db/db mice given mouse [D-Leu-4]-OB3 were approximately 3-fold lower than those in mice receiving Intravail® alone. Mouse [D-Leu-4]-OB3 elevated serum osteocalcin in db/db mice by 28.7% over Intravail® treated control mice. […] In addition, its effects on bone turnover may also be useful in the prevention and/or reversal of at least some of the bone loss which accompanies osteoporosis, anorexia nervosa, cancer, and other wasting diseases not associated with the obesity syndrome.

male C57BL/6J ob/ob mice = assay: Oral delivery (gavage) in ad libitum fed ob/ob mice: body weight, food and water intake, serum glucose, serum osteocalcin; assay type: in vivo, mouse
Protocol: (§1) Six week-old male C57BL/6J wild type and ob/ob mice were obtained from Jackson Laboratories (Bar Harbor, Me., USA). The animals were housed individually polycarbonate cages fitted with stainless steel wire lids and air filters, and supported on ventilated racks (Thoren Caging Systems, Hazelton, Pa., USA) in the Albany Medical College Animal Resources Facility. The mice were maintained at a constant temperature (24° C.) with lights on from 07:00 to 19:00, and allowed food and water ad libitum for 6 days following arrival. During the test period, mice were fed ad libitum or calorie restricted to 60% of normal. Water intake was allowed ad libitum.
(§2) On day 1 of the study, and on each day thereafter, a water bottle containing 200 ml of water was added to each cage between 09:00 and 10:00 h. Mice fed ad libitum were given 200 g of pelleted rodent diet (Prolab Rat, Mouse, Hamster 3000, St. Louis, Mo.; 22% crude protein, 5% crude fat, 5% fiber, 6% ash, 2.5% additional minerals) between 09:00 and 10:00 h each day. The mice were weighed once daily between 09:00 and 10:00 h on an Acculab V-333 electronic balance (Cole-Parmer, Vernon Hills, Ill., USA). Calorie-restricted wild type and ob/ob mice received 60% of normal daily intake. Twenty four hours later, food and water remaining in the cages was measured to the nearest 0.1 g and 0.1 ml, respectively. To assure fasting glucose levels on days in which blood glucose was measured, food was removed from the cages between 09:00 and 10:00 h, and replaced immediately before the beginning of the dark cycle.
(§3) Mouse [D-Leu-4]OB3 was prepared commercially as a C-terminal amide by Bachem (Torrance, Calif., USA). The peptide was dissolved in 0.3% Intravail A3® (Aegis Therapeutics, San Diego, Calif. USA) reconstituted in water, and administered by gavage once daily for 10 days at a concentration of 1 mg/200 μl immediately before the start of the dark cycle. Is has previously been shown that this is the optimum concentration of mouse [D-Leu-4]-OB3 and its related bioactive peptide amides, for regulating energy expenditure, glucose levels, and insulin sensitivity in two genetically obese mouse models (see Rozhayskaya-Arena M. et al., Endocrinology 141:2501-2517 (2000); Grasso P. et al. Regulatory Pep. 101:123-129 (2001); Grasso P. et al., Diabetes 48:2204-2209 (1999), Grasso P. et al., Endocrinology 138:1413-1418 (1997); Grasso P. et al., Regulatory Peptides 85:93-100 (1999); and Grasso P. et al., Diabetes 48:2204-2209 (1999)). Vehicle injected control mice received 200 ul of Intravail A3® only.
(§4) Initial blood samples were drawn by snipping the end of the tail of each mouse at the beginning of the study (day 0); subsequent samples were obtained by gently removing the scab. Blood was taken 1 h before the onset of the dark period at the beginning of the study, and after 2, 4, 6, 8, and 10 days of treatment. The blood was applied to a test strip, and glucose levels were measured with a Glucometer Elite glucose meter (Bayer, Elkhart, Ind., USA).
(§5) At the end of the study, the mice were anesthetized with isoflurane (5%) and exsanguinated by cardiac puncture. Euthanasia was confirmed by cervical dislocation. The blood was collected in sterile nonheparinized plastic centrifuge tubes and allowed to stand at room temperature for 1 h. The clotted blood was rimmed from the walls of the tubes with sterile wooden applicator sticks. Individual serum samples were prepared by centrifugation for 30 min at 2600×g in an Eppendorf 5702R, A-4-38 rotor (Eppendorf North America, Westbury, N.Y., USA). The serum samples in each experimental group (n=6) were pooled and stored frozen until assayed for osteocalcin content.
(§6) Serum osteocalcin in the pooled samples was assayed in triplicate with a mouse osteocalcin ELISA kit obtained from Biomedical Technologies, Inc. (Stoughton, Mass., USA) according to the instructions supplied by the manufacturer. […]

[2] = test system: calorie restricted male C57BL/6J wild type mice; assay: Oral delivery (gavage) in calorie restricted (40%) wild type mice: body weight, serum glucose, serum osteocalcin; assay type: in vivo, mouse
Protocol: as §1, §2, §3, §4, §5, §6

[3] = 1 mg/day, 14 days, intranasal in Intravail
[4] = ob/ob, ad libitum fed, 1 mg/day, 10 days, gavage in Intravail
[5] = ob/ob, ad libitum fed, 10 days gavage
[6] = ob/ob, ad libitum fed, oral delivery
[7] = 1 mg/day, 10 days, gavage in Intravail

For `CC(C)C[C@@H](NC(=O)[C@H](CO)NC(=O)[C@H](CS)NC(=O)[C@@H](N)CO)C(=O)N1CCC[C@H]1C(=O)N[C@@H](CCC(N)=O)C(=O)N[C@H](C(N)=O)[C@@H](C)O` [mouse [D-Leu-4]-OB3] (H-SCS[dL]PQT-NH2; N-terminus assumed), the “tissue sensitivity to insulin” value (ob/ob mouse model) is listed as “increases tissue sensitivity to insulin”, the “Body weight (% of initial)” value [1, 3] is listed as 104.9 ± 1.4 % of initial and the Final body weight [1, 3] is listed as 37.0 ± 1.7 g. For the same compound, the Food intake [1, 3] was 6.1 g/mouse/day and 6.1 ± 0.3 g/mouse/day, the Serum insulin [1, 3] was 0.95 ng/mL and 0.95 ± 0.03 ng/mL and the Serum osteocalcin [1, 3] was 470 ng/mL and 470.0 ± 20.0 ng/mL. The Water intake [1, 3] was 21.2 ml/mouse/day and 21.2 ± 1.8 ml/mouse/day, the “reduction of serum glucose” value ([1]; 14 days intranasal in Intravail) was 61.9% and the “body weight increase over initial body weight (heavier)” value ([1]; after 14 days intranasal in Intravail) was 4.9%. It also gave an Initial serum glucose ([1]; day 0) of 472 ± 7.3 mg/dL, an Initial body weight ([1]; day 0, 1 mg/day, 14 days, intranasal in Intravail) of 35.0 ± 1.1 g and a Final serum glucose ([1]; day 14, 1 mg/day intranasal in Intravail) of 209 ± 89.4 mg/dL. The “serum osteocalcin relative to wild type control mice” value (male C57BL/6J ob/ob mice; ob/ob mice) was “significantly elevated serum osteocalcin to levels higher than those seen in wild type control mice”, the “Body weight (% of initial)” value (male C57BL/6J ob/ob mice; [4]) was 96.3 ± 0.4 % of initial and the Final body weight (male C57BL/6J ob/ob mice; [4]) was 34.2 ± 0.9 g. For the same compound, the Serum osteocalcin (male C57BL/6J ob/ob mice; [4]) was 300.5 ± 7.0 ng/mL, the “daily food intake compared to Intravail alone” value (male C57BL/6J ob/ob mice; [5]) was “significantly (P<0.001) less” and the “daily water consumption compared to Intravail treated counterparts” value (male C57BL/6J ob/ob mice; [5]) was “significantly (P<0.05) less water per day”. For the same compound, the “serum glucose after treatment” value (male C57BL/6J ob/ob mice; [5]) was “significantly (P<0.001) reduced serum glucose levels, but not to normal levels”, the “loss of initial body weight” value (male C57BL/6J ob/ob mice; ob/ob, ad libitum fed, after 10 days gavage) was 3.7% and the Final serum glucose (male C57BL/6J ob/ob mice; ob/ob, ad libitum fed, after 10 days, 1 mg/day gavage in Intravail) was 380.5 ± 24.3 mg/dL. For the same compound, the Initial serum glucose (male C57BL/6J ob/ob mice; ob/ob, ad libitum fed, day 0) was 503.9 ± 19.6 mg/dL, the Initial body weight (male C57BL/6J ob/ob mice; ob/ob, ad libitum fed, day 0, 1 mg/day, 10 days, gavage in Intravail) was 35.5 ± 0.8 g and the “reduction of body weight gain” value (male C57BL/6J ob/ob mice; [6]) was 11.6%. For the same compound, the “reduction of food intake” value (male C57BL/6J ob/ob mice; [6]) was 16.5%, the “reduction of serum glucose” value (male C57BL/6J ob/ob mice; [6]) was 24.4% and the “reduction of water intake” value (male C57BL/6J ob/ob mice; [6]) was 22.4%. For the same compound, the “Body weight (% of initial)” value [2, 7] was 90.0 ± 0.8 % of initial, the Final body weight [2, 7] was 20.3 ± 0.7 g and the Serum osteocalcin [2, 7] was 216.6 ± 0.4 ng/mL. The “serum osteocalcin, effect on decrease caused by calorie restriction” value ([2]; 10 days gavage) was “prevented this decrease; also recorded: significantly (P<0.001) elevated serum osteocalcin levels to levels Seen in Intravail® treated wild type mice fed ad libitum”, the “weight loss compared to calorie restriction with Intravail alone (words)” value ([2]; 10 days gavage) was “did not enhance this weight loss” and the “weight loss compared to calorie restriction with Intravail alone (words)” value ([2]; 10 days gavage, listed as mouse [D-leu-4]-OB3) was “essentially the same”. It also gave a Final serum glucose ([2]; after 10 days, 1 mg/day gavage in Intravail) of 134.8 ± 14.8 mg/dL, an Initial serum glucose ([2]; day 0) of 186.7 ± 36.7 mg/dL and an Initial body weight ([2]; day 0, 1 mg/day, 10 days, gavage in Intravail) of 22.6 ± 0.8 g.
